Source: ChEMBL document CHEMBL1127933, “Synthesis and biological evaluation of the potent isoxazolidinyl angiotensin II receptor antagonist CL332,877 and its enantiomers” (Bioorg Med Chem Lett, 1994)

Legend:
[1] = molecular target: T1, Type-1 angiotensin II receptor (Bos taurus, UniProt P25104); assay: Compound was tested for in vitro for AII receptor antagonistic activity in bovine adrenal cortex.; type: functional, tissue-based
T1 sequence (P25104 whole entry): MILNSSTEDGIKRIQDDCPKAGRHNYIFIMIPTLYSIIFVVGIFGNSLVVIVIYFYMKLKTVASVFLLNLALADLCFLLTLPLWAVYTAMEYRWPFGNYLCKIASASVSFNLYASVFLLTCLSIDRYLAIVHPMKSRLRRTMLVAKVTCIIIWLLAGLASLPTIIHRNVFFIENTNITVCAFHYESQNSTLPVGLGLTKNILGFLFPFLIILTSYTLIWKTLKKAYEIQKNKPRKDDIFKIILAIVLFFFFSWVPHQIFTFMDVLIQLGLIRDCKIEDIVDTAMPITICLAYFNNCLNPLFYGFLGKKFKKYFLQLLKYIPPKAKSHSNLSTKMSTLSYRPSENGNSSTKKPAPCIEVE

[2] = tested on: Rattus norvegicus; assay: Change in mean arterial blood pressure in conscious renin dependent […] rats 1 mg/kg of oral dose after 5 hr; type: functional
[3] = tested on: Rattus norvegicus; assay: Percent Inhibition of AII vasopressor response in SHR at 1 mg/kg oral dose in hypertensive rats after 5 h; type: functional
[4] = molecular target: T2, Angiotensin II receptor (Rattus norvegicus, UniProt P29089+P25095+P35351); assay: Binding affinity expressed as inhibitory concentration against angiotensin II receptor of rat adrenal cortex; type: tissue-based
T2 sequence (P29089 whole entry): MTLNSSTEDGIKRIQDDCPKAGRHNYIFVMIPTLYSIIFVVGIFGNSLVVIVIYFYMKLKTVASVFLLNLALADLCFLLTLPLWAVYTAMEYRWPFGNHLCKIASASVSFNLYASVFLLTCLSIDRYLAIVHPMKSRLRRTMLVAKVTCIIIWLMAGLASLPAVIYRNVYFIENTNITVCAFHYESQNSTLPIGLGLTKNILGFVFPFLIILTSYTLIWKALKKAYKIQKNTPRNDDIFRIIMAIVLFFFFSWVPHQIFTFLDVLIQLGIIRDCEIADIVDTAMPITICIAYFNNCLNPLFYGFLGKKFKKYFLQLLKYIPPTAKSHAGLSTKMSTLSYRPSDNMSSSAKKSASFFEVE
T2 sequence (P25095 whole entry): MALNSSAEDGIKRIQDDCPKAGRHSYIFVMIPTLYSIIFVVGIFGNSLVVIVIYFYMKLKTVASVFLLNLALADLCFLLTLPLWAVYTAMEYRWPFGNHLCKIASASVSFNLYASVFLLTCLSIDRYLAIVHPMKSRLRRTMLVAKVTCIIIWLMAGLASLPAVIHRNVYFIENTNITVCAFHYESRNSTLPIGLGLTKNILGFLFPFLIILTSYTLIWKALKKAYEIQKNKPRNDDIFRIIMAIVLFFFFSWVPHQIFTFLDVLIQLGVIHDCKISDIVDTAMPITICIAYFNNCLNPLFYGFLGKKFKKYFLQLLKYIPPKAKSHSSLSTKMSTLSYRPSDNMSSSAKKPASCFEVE
T2 sequence (P35351 whole entry): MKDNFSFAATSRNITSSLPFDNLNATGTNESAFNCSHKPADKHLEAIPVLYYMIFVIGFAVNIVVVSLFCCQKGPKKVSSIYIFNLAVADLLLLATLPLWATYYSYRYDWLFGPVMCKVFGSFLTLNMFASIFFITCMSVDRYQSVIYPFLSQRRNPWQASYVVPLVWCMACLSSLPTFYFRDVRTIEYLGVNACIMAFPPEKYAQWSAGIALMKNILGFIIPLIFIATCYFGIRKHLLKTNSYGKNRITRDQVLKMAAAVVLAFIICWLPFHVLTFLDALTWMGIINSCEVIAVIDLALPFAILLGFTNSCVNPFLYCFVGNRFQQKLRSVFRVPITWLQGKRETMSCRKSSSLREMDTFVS

[5] = molecular target: T1, Type-1 angiotensin II receptor; assay: Binding affinity expressed as inhibitory concentration towards bovine adrenal cortex angiotensin II receptor was measured; type: tissue-based
[6] = molecular target: T2, Angiotensin II receptor; assay: Binding affinity expressed as inhibitory concentration against angiotensin II of rat adrenal cortex; type: tissue-based
[7] = tested on: Rattus norvegicus; assay: Decrease in mean arterial blood pressure in aorta coated rats 3 mg/kg of oral dose after 4 hr; type: functional
[8] = tested on: Rattus norvegicus; assay: Tested for […] in the […] rat at 3 mg/kg of oral dose; […]; type: functional, organism-based; design: dose 3 mg/kg

Row | IC50 [1] [nM] | IC50 [4] [nM] | IC50 [5] [nM] | SMILES | Change in BP ([2]; 1 mg/kg) [mmHg] | inhibition in vivo at 1 mg/kg [3] [%] | further results
1 |  | 17 | 38 | CCCCc1nc2ccc([C@]3(C)C[C@H]4CCCN4O3)cc2c(=O)n1Cc1ccc(-c2ccccc2-c2nn[n-]n2)cc1.[Na+] (stereo in doubt; 14) | -4 | 40 | 
2 |  | 26 | 77 | CCCCc1nc2ccc([C@@]3(C)C[C@@H]4CCCN4O3)cc2c(=O)n1Cc1ccc(-c2ccccc2-c2nnn[n-]2)cc1.[Na+] |  | -10 | Change in BP [2]: -3 mmHg

More lines, now with the values behind:

Row | SMILES | IC50 [1] [nM] | IC50 [4] [nM] | IC50 [5] [nM] | Change in BP ([2]; 1 mg/kg) [mmHg] | inhibition in vivo at 1 mg/kg [3] [%] | further results
3 | CCc1nc2c(C)cc(C)nc2n1Cc1ccc(-c2ccccc2-c2nnn[nH]2)cc1 [L-158809] | 27 |  |  |  |  | 
4 | CCCCc1nc2ccc(C(C)(O)C[C@H]3CCCN3)cc2c(=O)n1Cc1ccc(-c2ccccc2-c2nnn[nH]2)cc1 (stereo not given in full) | 3.5 |  |  |  |  | 
5 | CCCCc1nc2ccc([C@]3(C)C[C@H]4CCCN4O3)cc2c(=O)n1Cc1ccc(-c2ccccc2-c2nn[n-]n2)cc1.[Na+] (stereo in doubt; 1a) |  |  | 26 | 0 |  | IC50 [6]: 17 nM
6 | CCCCc1nc2ccc(C(C)(O)C[C@H]3CCCN3)cc2c(=O)n1Cc1ccc(-c2ccccc2-c2nn[nH]n2)cc1 (stereo not given in full) |  |  |  |  |  | Change in BP [7]: 32 mmHg; Activity [8]: Weak activity
